Assay results taken from patent US10131652B2, “Pyrimidinyloxy benzene derivatives as herbicides” (E. I. DU PONT DE NEMOURS AND COMPANY, priority 2014, dated 2018).

How the values were obtained:
Assay type in all cases: in vivo
[1] = system: barnyardgrass (Echinochloa crus-galli); test: Test B pre-/postemergence plant response
In short: (§1)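 Greenhouse pots, loam/sand soil; compound formulated with surfactant in non-phytotoxic solvent. Preemergence soil spray and postemergence spray at 1–2 leaf stage run simultaneously. Visual injury, 0–100, about 10 days post-treatment.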

corn (Zea mays) = test: Test B pre-/postemergence plant response
In short: as §1

[2] = system: giant foxtail (Setaria faberii); test: Test B pre-/postemergence plant response
In short: as §1

[3] = system: pigweed (Amaranthus retroflexus); test: Test B pre-/postemergence plant response
In short: as §1

[4] = system: wheat (Triticum aestivum); test: Test B pre-/postemergence plant response
In short: as §1

[5] = system: barnyardgrass (Echinochloa crus-galli); test: Test C flooded paddy test plant response; conditions: Flood, 250 g ai/ha; scale of 0 to 100 where 0 is no effect and 100 is complete control; 13 to 15 days
In short: (§2)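 2-leaf plants; flood 3 cm, cpd into paddy water; greenhouse 13–15 d; visual score vs untreated, 0 = no effect, 100 = complete control; dash = no result.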

[6] = system: ducksalad (Heteranthera limosa); test: Test C flooded paddy test plant response; conditions: Flood, 250 g ai/ha; scale of 0 to 100 where 0 is no effect and 100 is complete control; 13 to 15 days
In short: as §2

rice (Oryza sativa) = test: Test C flooded paddy test plant response; conditions: Flood, 250 g ai/ha; scale of 0 to 100 where 0 is no effect and 100 is complete control; 13 to 15 days
In short: as §2

[7] = system: small-flower umbrella sedge (Cyperus difformis); test: Test C flooded paddy test plant response; conditions: Flood, 250 g ai/ha; scale of 0 to 100 where 0 is no effect and 100 is complete control; 13 to 15 days
In short: as §2

[8] = system: johnsongrass (Sorghum halepense); test: Test D pre-/postemergence plant response
In short: (§3)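 Seeds sown in loam–sand blend got preemergence sprays of test chemicals in a non-phytotoxic solvent with surfactant; postemergence sprays went on plants at 1- to 4-leaf stage (2 to 18 cm) in peat/vermiculite medium. After 13 to 15 days in greenhouse, visual injury versus controls scored 0 (no effect) to 100 (complete control).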

[9] = system: lambsquarters (Chenopodium album); test: Test D pre-/postemergence plant response
In short: as §3

[10] = system: morningglory (Ipomoea coccinea); test: Test D pre-/postemergence plant response
In short: as §3

soybean (Glycine max) = test: Test D pre-/postemergence plant response
In short: as §3

[11] = system: velvetleaf (Abutilon theophrasti); test: Test D pre-/postemergence plant response
In short: as §3

[12] = system: waterhemp (common waterhemp, Amaranthus rudis); test: Test D pre-/postemergence plant response
In short: as §3

[13] = system: winter wheat (Triticum aestivum); test: Test D pre-/postemergence plant response
In short: as §3

[14] = 125 g ai/ha, postemergence, 0 to 100 scale, 0 no effect, 100 complete control
[15] = Postemergence, 500 g ai/ha, 0 to 100 scale (0 no effect, 100 complete control)
[16] = Preemergence, 125 g ai/ha, 0 to 100 scale (0 no effect, 100 complete control)
[17] = Preemergence, 500 g ai/ha, 0 to 100 scale where 0 is no effect and 100 is complete control
[18] = Postemergence, 31 g ai/ha, scale 0 to 100 (0 no effect, 100 complete control)
[19] = Postemergence, 62 g ai/ha, scale 0 to 100, 0 no effect, 100 complete control
[20] = Postemergence, 125 g ai/ha, scale 0 to 100, 0 no effect, 100 complete control
[21] = Preemergence, 16 g ai/ha, scale 0 to 100 (0 no effect, 100 complete control)
[22] = Preemergence, 31 g ai/ha, scale 0 to 100 (0 no effect, 100 complete control)
[23] = Preemergence, 62 g ai/ha, scale 0 to 100 (0 no effect, 100 complete control)

## FC(F)c1cc(-c2c(Cl)cccc2Oc2ncc(Cl)cn2)no1 [Compound 179]
[1]; [14]
  Plant response rating, Barnyardgrass: 10
[1]; [15]
  Plant response rating, Barnyardgrass: 80
[1]; [16]
  Barnyardgrass plant response rating: 10
[1]; [17]
  Plant response rating, Barnyardgrass: 90
Corn (Zea mays); [14]
  Plant response rating, Corn: 10
Corn (Zea mays); [15]
  Plant response rating, Corn: 40
[2]; [14]
  Plant response rating, Foxtail, Giant: 40
[2]; [15]
  Plant response rating, Foxtail, Giant: 80
[2]; [16]
  Foxtail, Giant plant response rating: 80
[2]; [17]
  Plant response rating, Foxtail, Giant: 100
[3]; [14]
  Plant response rating, Pigweed: 100
[3]; [15]
  Plant response rating, Pigweed: 100
[3]; [16]
  Pigweed plant response rating: 100
[3]; [17]
  Plant response rating, Pigweed: 100
[4]; [14]
  Plant response rating, Wheat: 40
[4]; [15]
  Plant response rating, Wheat: 90
[5]
  Barnyardgrass plant response rating: 0
[6]
  Ducksalad plant response rating: 80
Rice (Oryza sativa)
  Rice plant response rating: 40
[7]
  Sedge, Umbrella plant response rating: 80
[8]; Postemergence, 16 g ai/ha
  Plant response rating (scale 0 to 100), Johnsongrass: 0
[8]; [18]
  Johnsongrass plant response rating: 5
[8]; [19]
  Plant response rating, Johnsongrass: 5
[8]; [20]
  Plant response rating, Johnsongrass: 5
[8]; Preemergence, 125 g ai/ha
  Plant response rating (scale 0 to 100), Johnsongrass: 65
[8]; [21]
  Plant response rating, Johnsongrass: 0
[8]; [22]
  Plant response rating, Johnsongrass: 0
[8]; [23]
  Plant response rating, Johnsongrass: 20
[9]; Postemergence, 16 g ai/ha
  Plant response rating (scale 0 to 100), Lambsquarters: 70
[9]; [18]
  Lambsquarters plant response rating: 75
[9]; [19]
  Lambsquarters plant response rating: 75
[9]; [20]
  Plant response rating, Lambsquarters: 100
[9]; Preemergence, 125 g ai/ha
  Plant response rating (scale 0 to 100), Lambsquarters: 100
[9]; [21]
  Plant response rating, Lambsquarters: 75
[9]; [22]
  Plant response rating, Lambsquarters: 100
[9]; [23]
  Plant response rating, Lambsquarters: 100
[10]; Postemergence, 16 g ai/ha
  Plant response rating (scale 0 to 100), Morningglory: 30
[10]; [18]
  Morningglory plant response rating: 65
[10]; [19]
  Morningglory plant response rating: 85
[10]; [20]
  Plant response rating, Morningglory: 90
[10]; Preemergence, 125 g ai/ha
  Plant response rating (scale 0 to 100), Morningglory: 15
[10]; [21]
  Plant response rating, Morningglory: 0
[10]; [22]
  Plant response rating, Morningglory: 0
[10]; [23]
  Plant response rating, Morningglory: 0
Soybean (Glycine max); Postemergence, 16 g ai/ha
  Plant response rating (scale 0 to 100), Soybean: 25
Soybean (Glycine max); [18]
  Soybean plant response rating: 45
Soybean (Glycine max); [19]
  Soybean plant response rating: 70
Soybean (Glycine max); [20]
  Plant response rating, Soybean: 70
Soybean (Glycine max); Preemergence, 125 g ai/ha
  Plant response rating (scale 0 to 100), Soybean: 45
Soybean (Glycine max); [21]
  Plant response rating, Soybean: 0
Soybean (Glycine max); [22]
  Plant response rating, Soybean: 0
Soybean (Glycine max); [23]
  Plant response rating, Soybean: 30
[11]; Postemergence, 16 g ai/ha
  Plant response rating (scale 0 to 100), Velvetleaf: 15
[11]; [18]
  Velvetleaf plant response rating: 20
[11]; [19]
  Velvetleaf plant response rating: 30
[11]; [20]
  Plant response rating, Velvetleaf: 70
[11]; Preemergence, 125 g ai/ha
  Plant response rating (scale 0 to 100), Velvetleaf: 100
[11]; [21]
  Plant response rating, Velvetleaf: 15
[11]; [22]
  Plant response rating, Velvetleaf: 65
[11]; [23]
  Plant response rating, Velvetleaf: 85
[12]; Postemergence, 16 g ai/ha
  Plant response rating (scale 0 to 100), Waterhemp: 60
[12]; [18]
  Waterhemp plant response rating: 90
[12]; [19]
  Waterhemp plant response rating: 95
[12]; [20]
  Plant response rating, Waterhemp: 98
[12]; Preemergence, 125 g ai/ha
  Plant response rating (scale 0 to 100), Waterhemp: 100
[12]; [21]
  Plant response rating, Waterhemp: 75
[12]; [22]
  Plant response rating, Waterhemp: 90
[12]; [23]
  Plant response rating, Waterhemp: 90
[13]; Postemergence, 16 g ai/ha
  Plant response rating (scale 0 to 100), Wheat: 5
[13]; [18]
  Wheat plant response rating: 10
[13]; [19]
  Wheat plant response rating: 30
[13]; [20]
  Plant response rating, Wheat: 35
[13]; Preemergence, 125 g ai/ha
  Plant response rating (scale 0 to 100), Wheat: 35
[13]; [21]
  Plant response rating, Wheat: 0
[13]; [22]
  Plant response rating, Wheat: 0
[13]; [23]
  Plant response rating, Wheat: 0
